Source: patent US20220087970A1, “PREVENTION OF ANESTHETIC-INDUCED NEUROCOGNITIVE DYSFUNCTION” (The Johns Hopkins University, priority 2019, published 2022)

Key:
ERK = test: Western blot, phosphorylation status of ERK in hippocampal tissues; assay type: in vivo; details: PND7 mice; BAY 60-7550 3 mg/kg 30 min, molsidomine 4 mg/kg 30 min
Protocol: PND7 mice were exposed to isoflurane (1.5% ISO in 02, 4 hr), control gas (100% O2, 4 hr), PDE inhibitor (BAY 60-7550, 3 mg/kg, 30 min), or NO donor (molsidomine, 4 mg/kg, 30 min), we harvested hippocampal tissues for Western blotting to assess the phosphorylation status of ERK.

neuron cultures = test: Neuron cultures, synapses (PSD95/Synaptophysin puncta) at DIV14; assay type: cell-based; details: DETA 150 μM and ODQ 100 μM for 4 hrs right before exposure to gases at DIV7
Protocol: Neuron cultures were transfected with GFP-AAV virus at DIV-4 and were exposed to NO donor (DETA) 150 μM and sGC inhibitor (ODQ) 100 μM for 4 hrs right before exposure to gases at DIV7. Cells were returned back to incubator with half media change every second day. At DIV14, cells were fixed and stained with PSD95 and Synaptophysin. […] Scale bar is 5 μm. FIG. 23B: Synapse were analyzed using puncta analyzer plugin as shown in methods section.

primary neuron cultures = test: Primary neuron cultures, long thin spines and filopodia at DIV7; assay type: cell-based; details: for effect on PDZ2WT-induced loss of long thin spines and filopodia at DIV7: PDZ2WT peptide 1 μM 4 hrs; for effect on PDZ2WT-induced loss of long thin spines and filopodia at DIV7 / effect on isoflurane-induced loss of long thin spines and filopodia at DIV7: DETA NONOate 150 μM, ODQ 100 μM added to NO donor; for effect on isoflurane-induced loss of long thin spines and filopodia at DIV7: isoflurane 1.5% 4 hrs
Protocol: Primary neuron cultures were exposed to control gas (25% O2, 5% CO2, bal N2), isoflurane (1.5% ISO in 25% O2, 5% CO2, bal N2), DETA NONOate NO donor 150 μM and sGC inhibitor ODQ 100 μM for 4 hrs. […] MAP2 dendrite marker, green. Drebrin A/E immature spine/filopodia marker, red. Scale bar is 5 μm. FIG. 20B, Density of long thin spines and filopodia at DIV7 among exposed groups analyzed using Imaris 93.1;
MAP2, green. Drebrin, red. Scale bar is 5 μm. FIG. 21B, show the density of long thin spines and filopodia among exposed groups;
Neuron cultures were exposed to control gas (25% O2, 5% CO2, balance N2) or sevoflurane (2.1% ISO in 25% O2, 5% CO2, balanced N2) for 4 hrs. […] Scale bar is 5 μm. FIG. 22B, Density of long thin spines and filopodia among exposed groups; and […]

[1] = tested on: PSD-95 or PSD-93 and the NMDA receptor or nNOS; details: clinically relevant concentrations; Fang et al., 2003; Tao et al., 2015; cited from earlier work
[2] = tested on: hippocampal CA1 LTP (Schaffer collateral pathway); test: Extracellular field-potential recordings, LTP in hippocampal slices at PND21; assay type: in vivo, mice; details: molsidomine 4 mg/kg ip after PND7 exposure
Protocol: 1.3.2 Anesthesia, Peptide, and Molsidomine Injections. PND7 control and experimental mice were placed in a clear plastic cone and body temperature maintained by a heating blanket set to 35° C. Vital signs and physiological monitoring were assessed using PhysioSuite® (Kent Scientific Corporation, Torrington, Conn., USA) and blood gasses were collected arterially. […] Note that lower concentrations of 02 can be used, e.g., between 20% to 100% 02, including 20%, 25%, 30%, 35%, 40%, 45%, 50%, 55%, 60%, 65%, 70%, 75%, 80%, 85%, 90%, 95%, 96%, 97%, 98%, 99%, and 100% 02. Naïve animals were left with the dams. Anesthesia was initiated with 2.4% ISO in 100% oxygen for 2 min and tapered down to 1.5% within 15 min. Exposure to 1.5% ISO was continued for 3 hours and 45 min (total 4 hours ISO). Control ‘CON’ animals were exposed to 100% oxygen only. At the end of the exposure animals were maintained in oxygen on the heating blanket for 10 min then returned to dams. […] Tao and Johns, 2008. A single injection of peptide was given ip. […]
1.3.6.2. […] Synaptic responses were recorded using a MultiClamp 700B amplifier, and the signal was digitized with Digidita 1440A, analyzed with pClamp10 and stored on a personal computer. […] Measurements of the fEPSP slopes were made during the rising phase (5-50% of the peak) and the values normalized to the mean values recorded in 20-min baseline. […]

[3] = tested on: hippocampal dendritic mushroom spines (dentate gyrus); assay type: in vivo, mice; details: molsidomine 4 mg/kg ip after PND7 exposure, PND49
Protocol: PND7 control and experimental mice were placed in a clear plastic cone and body temperature maintained by a heating blanket set to 35° C. Heart rate (HR) and oxyhemoglobin saturation (SpO2) were continuously monitored using pulse-oximetry (PhysioSuite, Kent Scientific). Arterial blood was collected by terminal cardiac puncture of the left ventricle from sentinels and pH (pHa) determined using a blood gas machine (ABL800 FLEX Series Radiometer). […] Naïve control animals were left with the dams. Control ‘CON’ animals were exposed to oxygen only. Anesthesia was initiated with 2.4% isoflurane in oxygen for 2 min and tapered down to 1.5% within 15 min. Exposure to 1.5% isoflurane was continued for 3 hours and 45 min (total 4 hours ISO). At the end of the exposure animals were maintained in oxygen on the heating blanket for 10 min then returned to dams. […] Tao and Johns, 2008. Purification of fusion peptides was performed by Creative BioMart (Shirley, N.Y.) and verified by Coomassie blue staining and Western blot analysis and then stored in 10% glycerol/phosphate-buffered saline at −80° C. until use. The Tat-PSD-95 PDZ2WT and MUT plasmids used to generate proteins containing an amino-terminal, in-frame, 11-amino-acid, minimal transduction domain (residues 47-57 of human immunodeficiency virus Tat protein) termed Tat. […] Fang et al., 2003. […]

C57BL6 mice = test: Novel object recognition at PND21; assay type: in vivo; details: molsidomine 4 mg/kg ip after PND7 exposure, PND21
Protocol: 1.3.2 Anesthesia, Peptide, and Molsidomine Injections. PND7 control and experimental mice were placed in a clear plastic cone and body temperature maintained by a heating blanket set to 35° C. Vital signs and physiological monitoring were assessed using PhysioSuite® (Kent Scientific Corporation, Torrington, Conn., USA) and blood gasses were collected arterially. […] Note that lower concentrations of 02 can be used, e.g., between 20% to 100% 02, including 20%, 25%, 30%, 35%, 40%, 45%, 50%, 55%, 60%, 65%, 70%, 75%, 80%, 85%, 90%, 95%, 96%, 97%, 98%, 99%, and 100% 02. Naïve animals were left with the dams. Anesthesia was initiated with 2.4% ISO in 100% oxygen for 2 min and tapered down to 1.5% within 15 min. Exposure to 1.5% ISO was continued for 3 hours and 45 min (total 4 hours ISO). Control ‘CON’ animals were exposed to 100% oxygen only. At the end of the exposure animals were maintained in oxygen on the heating blanket for 10 min then returned to dams. […] Tao and Johns, 2008. A single injection of peptide was given ip. Separate peptide cohorts were injected in parallel with mice undergoing exposure to anesthesia or O2 control. Purification of fusion peptides was performed by Creative BioMart (Shirley, N.Y.) and verified by Coomassie blue staining and Western blot analysis and then stored in 10% glycerol/phosphate buffered saline at −80° C. until use. The Tat-PSD-95 PDZ2WT and MUT plasmids used to generate proteins containing an amino-terminal, in-frame, 11-amino-acid, minimal transduction domain (residues 47-57 of human immunodeficiency virus Tat protein) termed Tat. […] Fang et al., 2003. The NO donor molsidomine [(N-[ethoxycarbonyl]-3-[4-morpholinosydnomine] (Sigma, St. Louis, Mo.) was injected at 4 mg/kg into mice ip in 100 μL sterile saline as previously described. The NO donor was added immediately following cessation of anesthesia or control (O2) exposure, i.e., the NO donor was injected 4 hours after onset of anesthesia. One of ordinary skill in the art upon review of the present disclosure would appreciate that the NO donor could be administered at other times during anesthesia, including at the onset of anesthesia. Control animals were injected ip with the vehicle (saline).
1.3.7 Novel Object Recognition. The novel object recognition (NOR) procedure was based upon the original Ennaceur et al., 1988, procedure and was used to assess nonspatial hippocampal memory. Clark et al., 2000; Baker and Kim, 2002; Reger et al., 2009. It consisted of a training ‘familiarization’ phase followed by a testing phase. During training, mice were allowed to freely explore within an opaque box (40 cm W×40 cm L×34 cm H) containing two identical objects for 10 min. Data were recorded with a video camera and time spent with each object was recorded using ANYmaze software (Stoelting). Object investigation time was determined by the amount of time the mouse spent in the zone immediately surrounding the object. […] After 2 h, object recognition was tested, using the same procedure as in training except that a novel object was substituted for one of the familiar training objects and mice were allowed to explore for 5 min. Mice inherently prefer to explore novel objects; thus, a preference for the novel object indicates intact memory for the familiar object.

| SMILES | amount of pERK (ERK) | effect on isoflurane-induced loss of synapses at DIV14 (neuron cultures) | effect on PDZ2WT-induced loss of long thin spines and filopodia at DIV7 (primary neuron cultures) | effect on isoflurane-induced loss of long thin spines and filopodia at DIV7 (primary neuron cultures) | PDZ domain-mediated protein interactions [1] | other results |
| --- | --- | --- | --- | --- | --- | --- |
| COc1ccc(Cc2nn3c([C@@H](CCCc4ccccc4)[C@@H](C)O)nc(C)c3c(=O)[nH]2)cc1OC [BAY 60-7550] | significant increases in the amount of pERK | – | – | – | – | – |
| NCCN(CCN)/[N+]([O-])=N/O [DETA NONOate] | – | prevented loss of synapses | prevented loss of immature spines | prevented loss of immature spines | – | – |
| O=c1onc2cnc3ccccc3n12 [ODQ] | – | blocked the prevention with DETA | blocked the prevention with NO donor | blocked the prevention with NO donor | – | – |
| FC(F)(F)C(Cl)Br (centres unmarked) [halothane, 2-bromo-2-chloro-1,1,1-trifluoroethane] | – | – | – | – | can disrupt PDZ domain-mediated protein-protein interactions in vitro and in vivo | – |
| CCOC(=O)Nc1c[n+](N2CCOCC2)no1 [molsidomine, N-ethoxycarbonyl-3-morpholinosydnonimine] | significant increases in the amount of pERK | – | – | – | – | effect of NO donor on impairment in LTP caused by ISO or PDZ2WT peptide [2]: prevents impairment in LTP and recognition memory; effect of NO donor on decrease in mushroom spine density caused by isoflurane or PDZ2WT peptide [3]: prevents the decrease in mushroom spine density; effect of NO donor on impairment in recognition memory caused by ISO or PDZ2WT peptide (C57BL6 mice): prevents impairment in LTP and recognition memory |
| FCOC(C(F)(F)F)C(F)(F)F [sevoflurane, 1,1,1,3,3,3-hexafluoro-2-(fluoromethoxy)propane] | – | – | – | – | can disrupt PDZ domain-mediated protein-protein interactions in vitro and in vivo | long thin spines and filopodia at DIV7 after exposure (primary neuron cultures; 4 hrs: isoflurane 1.5%, PDZ2WT peptide 1 μM or sevoflurane 2.1%): loss of filopodia |
